These molecules were tested against FGFR2 (Homo sapiens, UniProt P21802) (assay: FGFR wild type enzyme assay (HTRF KinEASE-TK), FGFR2). Settings: Enz FGFR2 (nM), FGFR2 wild type enzyme.
FGFR2, sequence (P21802 399-821 limits assumed): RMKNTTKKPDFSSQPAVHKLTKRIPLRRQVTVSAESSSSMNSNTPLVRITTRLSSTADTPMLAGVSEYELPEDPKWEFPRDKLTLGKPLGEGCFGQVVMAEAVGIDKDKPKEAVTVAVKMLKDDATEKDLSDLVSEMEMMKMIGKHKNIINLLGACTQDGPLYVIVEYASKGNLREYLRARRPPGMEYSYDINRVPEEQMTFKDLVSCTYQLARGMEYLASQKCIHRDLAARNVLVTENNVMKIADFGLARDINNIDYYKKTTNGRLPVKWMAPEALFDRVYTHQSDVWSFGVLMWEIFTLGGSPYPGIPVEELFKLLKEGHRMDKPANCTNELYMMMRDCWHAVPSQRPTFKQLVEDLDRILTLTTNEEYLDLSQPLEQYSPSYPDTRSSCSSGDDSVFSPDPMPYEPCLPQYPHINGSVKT

Compound | IC50
Cc1c(-c2cc(Sc3ncccc3F)c3c(C#N)cnn3c2)cnn1C1CCN(C(=O)CO)CC1 [Example 163, 4-((3-fluoropyridin-2-yl)thio)-6-(1-(1-(2-hydroxyacetyl)piperidin-4-yl)-5-methyl-1H-pyrazol-4-yl)pyrazolo[1,5-a]pyridine-3-carbonitrile] | 3 nM
CC(=O)N1CCC(n2ncc(-c3cc(Sc4ncc(F)cc4F)c4c(C#N)cnn4c3)c2C)CC1 [Example 164, 6-(1-(1-acetylpiperidin-4-yl)-5-methyl-1H-pyrazol-4-yl)-4-((3,5-difluoropyridin-2-yl)thio)pyrazolo[1,5-a]pyridine-3-carbonitrile] | 5 nM
Cc1c(-c2cc(Sc3ncccc3F)c3c(C#N)cnn3c2)cnn1[C@H]1CCCN(S(C)(=O)=O)C1 [Example 165, (S)-4-((3-fluoropyridin-2-yl)thio)-6-(5-methyl-1-(1-(methylsulfonyl)piperidin-3-yl)-1H-pyrazol-4-yl)pyrazolo[1,5-a]pyridine-3-carbonitrile] | 2 nM
CC(=O)N1CCC[C@H](n2ncc(-c3cc(Sc4ncccc4F)c4c(C#N)cnn4c3)c2C)C1 [Example 166, (S)-6-(1-(1-acetylpiperidin-3-yl)-5-methyl-1H-pyrazol-4-yl)-4-((3-fluoropyridin-2-yl)thio)pyrazolo[1,5-a]pyridine-3-carbonitrile] | 2 nM
Cc1c(-c2cc(Sc3ncccc3F)c3c(C#N)cnn3c2)cnn1[C@H]1CCCN(C(=O)CO)C1 [Example 167, (S)-4-((3-fluoropyridin-2-yl)thio)-6-(1-(1-(2-hydroxyacetyl)piperidin-3-yl)-5-methyl-1H-pyrazol-4-yl)pyrazolo[1,5-a]pyridine-3-carbonitrile] | 2 nM
Cc1c(F)ccc(Sc2cc(-c3cnn(C4CCNCC4)c3C)cn3ncc(C#N)c23)c1C#N [Example 168] | 1 nM
C[C@H](O)CN1CC[C@@H](n2cc(-c3cc(Sc4ccccc4C#N)c4c(C#N)cnn4c3)cn2)C1 [Example 169, 4-(2-cyanophenyl)sulfanyl-6-[1-[(3R)-1-[(2S)-2-hydroxypropyl]pyrrolidin-3-yl]pyrazol-4-yl]pyrazolo[1,5-a]pyridine-3-carbonitrile] | 0.4 nM
Cc1c(-c2cc(Sc3ccccc3C#N)c3c(C#N)cnn3c2)cnn1C[C@@H]1CCCNC1 [Example 170, 4-(2-cyanophenyl)sulfanyl-6-[5-methyl-1-[[(3R)-3-piperidyl]methyl]pyrazol-4-yl]pyrazolo[1,5-a]pyridine-3-carbonitrile] | 72 nM
Cc1c(-c2cc(Sc3ncccc3F)c3c(C#N)cnn3c2)cnn1C1CCC(N(C)C)CC1 (centres unmarked) [Example 171] | 1 nM
CCN(C)C1CCC(n2ncc(-c3cc(Sc4ncccc4F)c4c(C#N)cnn4c3)c2C)CC1 (centres unmarked) [Example 172, 6-(1-(4-(ethyl(methyl)amino)cyclo-hexyl)-5-methyl-1H-pyrazol-4-yl)-4-((3-fluoropyridin-2-yl)thio)pyrazolo[1,5-a]pyridine-3-carbonitrile] | 1 nM
Cc1c(-c2cc(Sc3ncccc3F)c3c(C#N)cnn3c2)cnn1C1CCC(N(C)C(=O)CN(C)C)CC1 (centres unmarked) [Example 173, N-(4-(4-(3-cyano-4-((3-fluoropyridin-2-yl)thio)pyrazolo[1,5-a]pyridin-6-yl)-5-methyl-1H-pyrazol-1-yl)cyclohexyl)-2-(dimethylamino)-N-methylacetamide] | 1 nM
CC(=O)N1CCC([C@@H](C)n2ncc(-c3cc(Sc4ncccc4F)c4c(C#N)cnn4c3)c2C)CC1 [Example 174, (R)-6-(1-(1-(1-acetylpiperidin-4-yl)ethyl)-5-methyl-1H-pyrazol-4-yl)-4-((3-fluoropyridin-2-yl)thio)pyrazolo[1,5-a]pyridine-3-carbonitrile] | 4 nM
Cc1c(-c2cc(Sc3ncccc3F)c3c(C#N)cnn3c2)cnn1[C@H]1CC[C@@]2(CCNC2)CC1 [Example 175, 4-((3-fluoropyridin-2-yl)thio)-6-(5-methyl-1-((5r,8r)-2-azaspiro[4.5]decan-8-yl)-1H-pyrazol-4-yl)pyrazolo[1,5-a]pyridine-3-carbonitrile] | 1 nM
CC(=O)N1CCC2(CC1)CC(n1ncc(-c3cc(Sc4ncccc4F)c4c(C#N)cnn4c3)c1C)C2 [Example 176, 6-(1-(7-acetyl-7-azaspiro[3.5]nonan-2-yl)-5-methyl-1H-pyrazol-4-yl)-4-((3-fluoropyridin-2-yl)thio)pyrazolo[1,5-a]pyridine-3-carbonitrile] | 1.5 nM
Cc1c(-c2cc(Sc3ncccc3F)c3c(C#N)cnn3c2)cnn1[C@H]1CC[C@@H](NS(C)(=O)=O)CC1 [Example 177, N-((1s,4s)-4-(4-(3-cyano-4-((3-fluoropyridin-2-yl)thio)pyrazolo[1,5-a]pyridin-6-yl)-5-methyl-1H-pyrazol-1-yl)cyclohexyl)methane-sulfonamide] | 1 nM
Cc1c(-c2cc(Sc3ncccc3F)c3c(C#N)cnn3c2)cnn1C1CCNC(C)(C)C1 (centres unmarked) [Example 178] | 1 nM

Compound | IC50
Cc1c(-c2cc(Sc3ncccc3F)c3c(C#N)cnn3c2)cnn1[C@@H](C)CN(C)C [Example 179, (S)-6-(1-(1-(dimethylamino)propan-2-yl)-5-methyl-1H-pyrazol-4-yl)-4-((3-fluoropyridin-2-yl)thio)pyrazolo[1,5-a]pyridine-3-carbonitrile] | 3 nM
Cc1c(-c2cc(Sc3ncccc3F)c3c(C#N)cnn3c2)cnn1[C@H](C)CN(C)C [Example 180, (R)-6-(1-(1-(dimethylamino)propan-2-yl)-5-methyl-1H-pyrazol-4-yl)-4-((3-fluoropyridin-2-yl)thio)pyrazolo[1,5-a]pyridine-3-carbonitrile] | 15 nM
Cc1c(-c2cc(Sc3ncccc3F)c3c(C#N)cnn3c2)cnn1C[C@@H](C)N(C)C [Example 181, (R)-6-(1-(2-(dimethylamino)propyl)-5-methyl-1H-pyrazol-4-yl)-4-((3-fluoropyridin-2-yl)thio)pyrazolo[1,5-a]pyridine-3-carbonitrile] | 7 nM
Cc1c(-c2cc(Sc3ncccc3F)c3c(C#N)cnn3c2)cnn1C[C@H](C)N(C)C [Example 182, (S)-6-(1-(2-(dimethylamino)propyl)-5-methyl-1H-pyrazol-4-yl)-4-((3-fluoropyridin-2-yl)thio)pyrazolo[1,5-a]pyridine-3-carbonitrile] | 8 nM
N#Cc1cnn2cc(-c3cnn4c3CNCC4)cc(Sc3ncccc3F)c12 [Example 183, 4-((3-fluoropyridin-2-yl)thio)-6-(4,5,6,7-tetrahydropyrazolo[1,5-a]pyrazin-3-yl)pyrazolo[1,5-a]pyridine-3-carbonitrile] | 8 nM
Cc1c(-c2cc(Sc3ncccc3F)c3c(C#N)cnn3c2)cnn1[C@H]1CC[C@@H](O)CC1 [Example 184, 4-((3-fluoropyridin-2-yl)thio)-6-(1-((1s,4s)-4-hydroxycyclohexyl)-5-methyl-1H-pyrazol-4-yl)pyrazolo[1,5-a]pyridine-3-carbonitrile] | 1.6 nM
Cc1c(-c2cc(Sc3ncccc3F)c3c(C#N)cnn3c2)cnn1[C@H]1CC[C@H](O)CC1 [Example 185, 4-((3-fluoropyridin-2-yl)thio)-6-(1-((1r,4r)-4-hydroxycyclohexyl)-5-methyl-1H-pyrazol-4-yl)pyrazolo[1,5-a]pyridine-3-carbonitrile] | 1 nM
Cc1c(-c2cc(Sc3ncccc3F)c3c(C#N)cnn3c2)cnn1[C@H]1CC[C@@H](N)CC1 [Example 186, 6-(1-((1s,4s)-4-aminocyclohexyl)-5-methyl-1H-pyrazol-4-yl)-4-((3-fluoropyridin-2-yl)thio)pyrazolo[1,5-a]pyridine-3-carbonitrile] | 3 nM
Cc1c(-c2cc(Sc3ncccc3F)c3c(C#N)cnn3c2)cnn1[C@H]1CC[C@H](N)CC1 [Example 187, 6-(1-((1r,4r)-4-aminocyclohexyl)-5-methyl-1H-pyrazol-4-yl)-4-((3-fluoropyridin-2-yl)thio)pyrazolo[1,5-a]pyridine-3-carbonitrile] | 1 nM
Cc1c(-c2cc(Sc3ccccc3C#N)c3c(C#N)cnn3c2)cnn1[C@H]1CC[C@@H](O)CC1 [Example 188, 4-((2-cyanophenyl)thio)-6-(1-((1s,4s)-4-hydroxycyclohexyl)-5-methyl-1H-pyrazol-4-yl)pyrazolo[1,5-a]pyridine-3-carbonitrile] | 0.5 nM
Cc1c(-c2cc(Sc3ccccc3C#N)c3c(C#N)cnn3c2)cnn1[C@H]1CC[C@H](O)CC1 [Example 189, 4-((2-cyanophenyl)thio)-6-(1-((1r,4r)-4-hydroxycyclohexyl)-5-methyl-1H-pyrazol-4-yl)pyrazolo[1,5-a]pyridine-3-carbonitrile] | 0.7 nM
CC(=O)N1CCC[C@H](n2ncc(-c3cc(Sc4ncc(F)cc4F)c4c(C#N)cnn4c3)c2C)C1 [Example 190, (S)-6-(1-(1-acetylpiperidin-3-yl)-5-methyl-1H-pyrazol-4-yl)-4-((3,5-difluoropyridin-2-yl)thio)pyrazolo[1,5-a]pyridine-3-carbonitrile] | 3 nM
Cc1c(-c2cc(Sc3ncc(F)cc3F)c3c(C#N)cnn3c2)cnn1C1CCN(C(=O)CO)CC1 [Example 191, 4-((3,5-difluoropyridin-2-yl)thio)-6-(1-(1-(2-hydroxyacetyl)piperidin-4-yl)-5-methyl-1H-pyrazol-4-yl)pyrazolo[1,5-a]pyridine-3-carbonitrile] | 4 nM
N#Cc1cnn2cc(-c3cnn([C@@H]4CCCNC4)c3)cc(Sc3ncccc3F)c12 [Example 192, (R)-4-((3-fluoropyridin-2-yl)thio)-6-(1-(piperidin-3-yl)-1H-pyrazol-4-yl)pyrazolo[1,5-a]pyridine-3-carbonitrile] | 2 nM
Cc1c(-c2cc(Sc3ncccc3F)c3c(C#N)cnn3c2)cnn1C1CCN(C(=O)[C@@H](C)O)CC1 [Example 193, (R)-4-((3-fluoropyridin-2-yl)thio)-6-(1-(1-(2-hydroxypropanoyl)piperidin-4-yl)-5-methyl-1H-pyrazol-4-yl)pyrazolo[1,5-a]pyridine-3-carbonitrile] | 2 nM
Cc1c(-c2cc(Sc3ncccc3F)c3c(C#N)cnn3c2)cnn1C1CCN(C(=O)[C@H](C)O)CC1 [Example 194, (S)-4-((3-fluoropyridin-2-yl)thio)-6-(1-(1-(2-hydroxypropanoyl)piperidin-4-yl)-5-methyl-1H-pyrazol-4-yl)pyrazolo[1,5-a]pyridine-3-carbonitirle] | 2 nM
